Like-named read-outs stand apart in the source and are kept apart here.
Experiments:
JAK1 = JAK1 (Homo sapiens (Human), UniProt P23458); test: Purified kinase assay (Z'-LYTE), JAK1; type: biochemical
Procedure, shortened: (§1)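 Catalytic-domain recombinant kinase with Tyr6 peptide (a separate Tyr6 kit for TYK2) and ATP, 1% DMSO final, reacted 1 h at room temperature. Z′-LYTE FRET read after 1 h protease development (ex 400, em 445/520 nm). Inhibition computed from percent substrate phosphorylation versus no inhibitor; IC50 from 4-parameter logistic fit.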

JAK2 = JAK2 (Homo sapiens (Human), UniProt O60674); test: Purified kinase assay (Z'-LYTE), JAK2; type: biochemical
JAK2, sequence (O60674 849-1124): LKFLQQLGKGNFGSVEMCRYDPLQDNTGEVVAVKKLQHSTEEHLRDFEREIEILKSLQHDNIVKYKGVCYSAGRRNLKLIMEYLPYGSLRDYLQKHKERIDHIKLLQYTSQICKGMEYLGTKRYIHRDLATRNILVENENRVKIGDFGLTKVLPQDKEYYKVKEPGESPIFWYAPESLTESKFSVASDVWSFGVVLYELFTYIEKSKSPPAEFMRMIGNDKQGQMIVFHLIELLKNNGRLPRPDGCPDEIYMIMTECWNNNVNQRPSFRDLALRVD
Procedure, shortened: as §1

JAK3 = JAK3 (Homo sapiens (Human), UniProt P52333); test: Purified kinase assay (Z'-LYTE), JAK3; type: biochemical
JAK3, sequence (P52333 822-1111): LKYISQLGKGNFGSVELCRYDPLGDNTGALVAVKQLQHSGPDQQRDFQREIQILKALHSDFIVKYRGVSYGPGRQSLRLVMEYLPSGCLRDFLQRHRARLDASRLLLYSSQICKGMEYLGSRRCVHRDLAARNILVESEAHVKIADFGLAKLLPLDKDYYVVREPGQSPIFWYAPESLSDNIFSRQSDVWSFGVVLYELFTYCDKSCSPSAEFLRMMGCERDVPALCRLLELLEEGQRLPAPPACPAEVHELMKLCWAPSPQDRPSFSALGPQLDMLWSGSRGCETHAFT
Procedure, shortened: as §1

TYK2 = TYK2 (Homo sapiens (Human), UniProt P29597); test: Purified kinase assay (Z'-LYTE), TYK2; type: biochemical
TYK2, sequence (P29597 897-1176): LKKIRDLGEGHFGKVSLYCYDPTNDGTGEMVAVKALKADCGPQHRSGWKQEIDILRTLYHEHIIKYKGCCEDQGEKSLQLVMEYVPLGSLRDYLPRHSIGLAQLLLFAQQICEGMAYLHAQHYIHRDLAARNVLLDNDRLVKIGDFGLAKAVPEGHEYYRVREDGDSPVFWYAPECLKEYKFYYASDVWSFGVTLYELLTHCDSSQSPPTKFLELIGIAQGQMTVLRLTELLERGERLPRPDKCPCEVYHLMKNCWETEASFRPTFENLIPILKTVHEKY
Method: JAK and TYK2 tyrosine phosphorylation activity is measured using the Z′-LYTE™ Technology developed by Invitrogen Corporation (Carlsbad, Calif.). For JAK1, JAK2 and JAK3 the Z′-LYTE™ Kinase Assay Kit-Tyr6 Peptide (part number PV4122) was used. For TYK2 the Z′-LYTE™ Kinase Assay Kit-Tyr6 Peptide (part number PV3192) was used. The Z′-LYTE™ biochemical assay employs a fluorescence resonance energy transfer (FRET) coupled-enzyme format and is based on the differential sensitivity of phosphorylated and non-phosphorylated peptides to proteolytic cleavage. The assay uses a synthetic peptide substrate that is labeled with a donor fluorophore (coumarin) and an acceptor fluorophore (fluorescein) that make up a FRET pair. In the primary reaction (the Kinase Reaction), the kinase transfers the γ-phosphate of ATP to a single tyrosine residue on the substrate, while the presence of a kinase inhibitor in the primary reaction suppresses phosphorylation. In the secondary reaction (the Development Reaction), a site-specific protease (the Development Reagent) is added. The development buffer quenches the Kinase Reaction, while the protease recognizes and cleaves non-phosphorylated Z′-LYTE™ peptide substrate. Cleavage disrupts FRET between the donor and acceptor fluorophores on the non-phosphorylated substrate, while uncleaved, phosphorylated substrate maintains FRET.
To test the ability of candidate molecules to inhibit JAK tyrosine phosphorylation activity, molecules are reconstituted in 100% DMSO and serially diluted 1:10 in polypropylene v-bottom microtiter plates. The candidate molecules are then diluted 1:25 into kinase buffer and 2.5 μl transferred into duplicate wells of a 384 well low volume black microtiter assay plate (Corning, USA). The final DMSO concentration in the assay is 1%. The kinase reaction contains 2.5 μl of a candidate molecule, 5 μl of catalytic domain recombinant Kinase enzyme+Tyr peptide substrate (Invitrogen, CA) and ATP (Invitrogen, CA). The kinase reaction is allowed to proceed for 1 hour at room temperature. The protease reaction is initiated by the addition of Development Reagent (Invitrogen, CA). After 1 hour incubation at room temperature the fluorescence is measured using a FlexStation plate reader (Molecular Devices, Sunnyvale, Calif.). The reader settings used are as follows: Fluorescence mode, endpoint, top read, excitation 400 nm, emission 445 nm and 520 nm, Auto Cutoff 435 nm and 515 nm, PMT sensitivity high, 6 reads per well Inhibition of JAK activity is calculated as the percent phosphorylation of substrate in the presence of inhibitor compared to the percent phosphorylation of substrate in the absence of inhibitor. IC50's were derived using Xlfit 4.3 (IDBS, UK), 4 parameter logistic model 205: Y=(A+((B−A)/(1+((C/x)^D)))).

[1] = system: JAK3/JAK1 (IL2-STAT5 in PBMC); test: Intracellular STAT5 phosphorylation following IL2 stimulation of PBMC (JAK3/JAK1 cellular assay); type: cell-based; conditions: Homo sapiens, read-out: IL2-STAT5 percent inhibition of STAT phosphorylation
Method: Human whole blood was collected into lithium heparin vacutainer tubes from the antecubital vein of human subjects. Peripheral blood mononuclear cells (PBMC) were prepared by layering 10 ml anti-coagulated blood over 5 ml lymphoprep in a 15 ml conical tube and centrifugation for 20 minutes at 400×g in a swinging bucket rotor. The lymphocyte layer was removed, washed twice in tissue culture media (RPMI containing 10% fetal bovine serum) prior to re-suspension in the same media at 2×10^6 cells/ml. 100 μl aliquots of PMBCs were incubated for 1 h at 37° C. with various concentrations of JAK inhibitors prior to stimulation for 15 minutes with 1.5 ng/ml of IL2 or IL4. The reaction was terminated by the addition of 60 μl 16% paraformaldehyde, followed by incubation at room temperature for 10 minutes. Fixed cells were washed twice in PBS, and then re-suspended in −20° C. 50% methanol diluted in PBS and stored at 4° C. overnight. Following permeabilization of the cell membrane in methanol, cells were washed twice in PBS containing 1% BSA and PBMCs were re-suspended in the same buffer containing CD3 and STAT5 Y694 specific antibodies (IL2 stimulations) or CD3, CD14, CD19, and STAT6 Y641 specific antibodies (IL4 stimulations) for 1 hour at room temperature. Cells were then washed and re-suspended in PBS/BSA buffer and assessed by flow cytometry (LSRII; BD Biosciences) for effect of JAK inhibitors on cytokine mediated STAT phosphorylation.
(§2) Percent inhibition of STAT phosphorylation in the cellular assays is provided for the compounds at the given concentrations.

[2] = system: JAK2 (GM-CSF-induced pSTAT5 in TF1 cells); test: GMCSF-induced pSTAT5 formation in TF1 (JAK2 cellular assay); type: cell-based; conditions: Homo sapiens, TF-1, read-out: TF1/GM-CSF percent inhibition of STAT phosphorylation
Method: 100 μl aliquots of TFI (2.5×10^6/ml) cells were pre-treated with various concentrations JAK inhibitors (0.04 to 5 μM, including 0.2 μM and 1 μM) for 1 hour at 37° C. Cells were then stimulated with 2 ng/ml GM-CSF for 10 minutes at 37° C. The reaction was terminated by the addition of 60 μl 16% paraformaldehyde followed by incubation for 10 minutes at room temperature. Cells were washed twice (centrifugation 5 minutes room temperature at 385×g) in PBS followed by re-suspension in −20° C. 50% methanol in PBS and storage at 4° C. overnight. The following day, cells were washed in PBS/BSA and re-suspended in the same buffer containing STAT5 Y694 specific antibody. Following incubation with antibodies, cells were washed and analyzed by flow cytometry (BD Biosciences; FACS Calibur). The gate was set on live cells in the SSC-FSC plot and 10,000 events were collected.
as §2

JAK1, sequence (P23458 875-1153): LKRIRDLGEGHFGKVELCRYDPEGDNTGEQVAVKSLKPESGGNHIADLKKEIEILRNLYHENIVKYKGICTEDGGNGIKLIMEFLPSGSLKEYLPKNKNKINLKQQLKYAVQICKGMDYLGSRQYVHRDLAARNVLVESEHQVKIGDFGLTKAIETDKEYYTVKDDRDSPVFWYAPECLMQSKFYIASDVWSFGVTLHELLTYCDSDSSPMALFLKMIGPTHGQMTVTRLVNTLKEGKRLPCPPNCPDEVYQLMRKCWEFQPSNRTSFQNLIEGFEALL

Row | SMILES | IC50 (JAK1; Table 1, read-out: JAK1 IC50) [nM] | IC50 (JAK2; Table 1, read-out: JAK2 IC50) [nM] | IC50 (JAK3; Table 1, read-out: JAK3 IC50) [nM] | IC50 (TYK2; Table 1, read-out: Tyk2 IC50) [nM] | IC50 (JAK1; Table 2, read-out: JAK1) [nM] | IC50 (JAK2; Table 2, read-out: JAK2) [nM] | IC50 (JAK3; Table 2, read-out: JAK3) [nM] | IC50 (TYK2; Table 2, read-out: TYK2) [nM] | inhibition at 0.2 µM ([1]; at 0.2 μM) [%] | inhibition at 1 µM ([1]; at 1.0 μM) [%] | inhibition at 0.1 µM ([2]; at 0.1 μM) [%] | inhibition at 1 µM ([2]; at 1.0 μM) [%]
1 | CS(=O)(=O)Cc1ccc(Nc2cc(NCc3cccc(F)c3F)c(C(N)=O)nn2)cc1 [Compound 89] | 100 to 1000 | 100 to 1000 | 1 to 10 | 100 to 1000 | – | – | – | – | – | – | – | –
2 | CC(=O)N1CCN(c2ccc(Nc3cc(NCc4cccc(F)c4)c(C(N)=O)nn3)cc2)CC1 [Compound 19] | > 1000 | 100 to 1000 | 1 to 10 | 100 to 1000 | – | – | – | – | – | – | – | –
3 | CC(=O)N1CCN(c2ccc(Nc3cc(NCc4cc(F)cc(F)c4)c(C(N)=O)nn3)cc2)CC1 [Compound 20] | 100 to 1000 | 10 to 100 | 1 to 10 | 100 to 1000 | > 1000 | 100 to 1000 | 1 to 10 | 100 to 1000 | 32 | 60 | 3 | 2
4 | CC(=O)N1CCN(c2ccc(Nc3cc(NCc4ccccc4F)c(C(N)=O)nn3)cc2)CC1 [Compound 18, 6-((4-(4-acetylpiperazin-1-yl)phenyl)amino)-4-((2-fluorobenzyl)amino)pyridazine-3-carboxamide] | 100 to 1000 | 100 to 1000 | 1 to 10 | 100 to 1000 | > 1000 | 100 to 1000 | 1 to 10 | 100 to 1000 | – | – | – | –
5 | NC(=O)c1nnc(Nc2cccc(OCCN3CCCC3)c2)cc1NCc1cccc(F)c1 [Compound 56] | > 1000 | 100 to 1000 | 10 to 100 | > 1000 | – | – | – | – | – | – | – | –
6 | CC(=O)N1CCN(c2ccc(Nc3cc(NCc4cccs4)c(C(N)=O)nn3)cc2)CC1 [Compound 21] | > 1000 | 100 to 1000 | 10 to 100 | 100 to 1000 | – | – | – | – | – | – | – | –
7 | CN(C)C(=O)c1ccc(Nc2cc(NCc3cccc(F)c3)c(C(N)=O)nn2)cc1 [Compound 59] | > 1000 | 100 to 1000 | 10 to 100 | > 1000 | – | – | – | – | – | – | – | –
8 | Cc1cc(Nc2cc(NCc3cccc(F)c3)c(C(N)=O)nn2)ccc1C(=O)N(C)C [Compound 60] | > 1000 | 100 to 1000 | 10 to 100 | > 1000 | – | – | – | – | – | – | – | –
9 | CC(=O)N1CCN(c2ccc(Nc3cc(NCc4ccccc4C)c(C(N)=O)nn3)cc2)CC1 [Compound 23] | 100 to 1000 | 100 to 1000 | 1 to 10 | 100 to 1000 | – | – | – | – | – | – | – | –
